Measured values from PubChem BioAssay (NCI).
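Protocol summary: plate cells (96-well), add compound at 5 concentrations, incubate 48 h, interpolate endpoints linearly. At the GI50, growth is halved. TGI: concentration producing complete growth inhibition.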

Key:
Experiment in all cases: NCI tumour cell line growth inhibition, 48 h
[1] = tested on: OVCAR-8 ovarian
[2] = tested on: HOP-62 NSCLC
[3] = tested on: OVCAR-5 ovarian
[4] = tested on: RPMI-8226 leukemia
[5] = tested on: UACC-62 melanoma
[6] = tested on: KM12 colon
[7] = tested on: DMS 273 small cell lung
[8] = tested on: SW-620 colon
[9] = tested on: COLO 205 colon
[10] = tested on: U251 CNS
[11] = tested on: HOP-92 NSCLC

Row | SMILES | TGI [1] [µM] | TGI [2] [µM] | TGI [3] [nM] | TGI [4] [µM] | TGI [5] [µM] | TGI [6] [µM] | TGI [7] [nM] | TGI [8] [µM] | TGI [9] [µM] | TGI [10] [µM] | GI50 [1] [µM] | GI50 [2] [nM] | GI50 [4] [µM] | GI50 [5] [µM] | GI50 [6] [µM] | GI50 [8] [µM] | GI50 [9] [µM] | GI50 [11] [nM] | TGI [11] [µM] | GI50 [10] [nM]
1 | Clc1ccc2c(Cl)nc(-c3ccccc3)nc2c1 | > 100 | > 100 | > 100000 | 55.3 | > 100 | > 100 | > 100000 | > 100 | > 100 | 35.1 | – | – | – | – | – | – | – | – | – | –
2 | c1ccc(C2=NN[C@H](c3cn(-c4ccccc4)nc3-c3ccccc3)C2)cc1 | > 100 | 5.58 | – | > 100 | > 100 | > 100 | – | > 100 | > 100 | 15.6 | 3.64 | 2160 | > 100 | 6.61 | > 100 | 9.34 | 6.55 | 2720 | 8.07 | 2910
3 | Cc1n(CC(C)C)c2c([n+]1CC(=O)c1ccc([N+](=O)[O-])cc1)C(=O)c1ccccc1C2=O | 0.476 | 1.15 | 69.8 | 0.757 | 0.104 | 0.386 | 161 | < 0.036 | < 0.01 | 0.034 | – | – | – | – | – | – | – | – | 0.128 | –
